We go through two compounds from PMC12645437, “Orthogonal IMiD-Degron Pairs Induce Selective Protein Degradation in Cells” (ACS Chemical Biology, 2025).

Structures are written as SMILES.

Data set [1] concerns the target FDIP mutant ZF degron fused to EGFP (Homo sapiens, UniProt Q96SW2+Q9UKT9, N149D/Q147F/Q150I/S154P). Kind of data set: Ratiometric EGFP:mCherry flow cytometry degradation assay, 18 h. (In general: A flow cytometer gives signals particle by particle.)
Data set [2] concerns the target AEVK mutant ZF degron fused to EGFP (Homo sapiens, UniProt Q96SW2+Q9UKT9, N149E/Q147A/Q150V/S154K). Described as above.
Data set [3] has as its target WEIK mutant ZF degron fused to EGFP (Homo sapiens, UniProt Q96SW2+Q9UKT9, N149E/Q147W/Q150I/S154K). The data set is described as above.
The target of data set [4] is T1, TRIM28 with N-terminal WEIS degron tag and HiBit tag (Homo sapiens, UniProt Q96SW2+Q9UKT9, N149E/Q147W/Q150I).
T1 construct: pLVX-Sprout-IKZF3 130-189aa Q147W N149E Q150I (WEIS); TRIM28 (fusion partner / protein of interest, gene TRIM28, human entry Q13263 by my knowledge); expressed in transfected cells; host or cells: Jurkat, lentiviral transduction; endogenous TRIM28 knocked out by CRISPR
T1 sequence (Q9UKT9 130-189 Q147W/N149E/Q150I): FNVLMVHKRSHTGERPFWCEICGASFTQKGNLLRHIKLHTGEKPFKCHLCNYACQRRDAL
T1 sequence (Q96SW2 whole entry, the tested form may be a part): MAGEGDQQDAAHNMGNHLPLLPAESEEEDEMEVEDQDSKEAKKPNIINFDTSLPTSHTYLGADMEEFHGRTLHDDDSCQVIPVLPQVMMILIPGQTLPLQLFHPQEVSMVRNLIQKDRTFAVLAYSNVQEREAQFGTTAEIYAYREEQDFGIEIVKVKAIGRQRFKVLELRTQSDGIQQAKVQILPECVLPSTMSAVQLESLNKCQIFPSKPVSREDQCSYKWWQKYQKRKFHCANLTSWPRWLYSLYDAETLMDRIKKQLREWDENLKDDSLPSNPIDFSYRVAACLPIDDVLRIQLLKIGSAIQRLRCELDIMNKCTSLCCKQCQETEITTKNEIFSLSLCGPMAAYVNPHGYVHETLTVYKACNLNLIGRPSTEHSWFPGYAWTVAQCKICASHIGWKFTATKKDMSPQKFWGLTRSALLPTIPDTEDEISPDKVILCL
In words: HiBiT luminescence degradation assay. The format is cell-based. Particulars: Jurkat, 24 h. A general note: The HiBiT peptide binds its large partner to form an active luciferase.

The target of data set [5] is T2, TRIM28 with C-terminal WEIS degron tag and HiBit tag (Homo sapiens, UniProt Q96SW2+Q9UKT9, N149E/Q147W/Q150I).
T2 construct: pLVX-Sprout-IKZF3 130-189aa Q147W N149E Q150I (WEIS); TRIM28 (fusion partner / protein of interest, gene TRIM28, human entry Q13263 by my knowledge); expressed in transfected cells; host or cells: Jurkat, lentiviral transduction; endogenous TRIM28 knocked out by CRISPR
T2 sequence (Q9UKT9 130-189 Q147W/N149E/Q150I): as the sequence (Q9UKT9 130-189 Q147W/N149E/Q150I) above
T2 sequence (Q96SW2 whole entry, the tested form may be a part): as the sequence (Q96SW2 whole entry, the tested form may be a part) above
In words: HiBiT luminescence degradation assay. The format is cell-based. Particulars: Jurkat, 24 h.

In data set [6] the test system is embryonic stem cells (ESCs). Kind of data set: TMTpro quantitative proteomics, 16 h. The settings on record: 10 μM.
Experimental: Quantitative proteomics screens were carried out in untransduced Jurkat cells, embryonic stem cells (ESCs), and the multiple myeloma cell line, MM.1S. We used Jurkat cells, as our work up to this point had employed this cell line, and we selected ESCs and MM.1S cells as they express known CRBN neosubstrates, including IKZF1, IKZF3, RAB28, RNF166, SALL4, ZFP91, and ZNF827.
Proteomics - cell lysis and protein digestion
The viability of Jurkat cells was tested after 16-h treatment with corresponding chemicals
viable cells in each condition. Next, ~10^7 cells per condition were collected by centrifugation (1000 rpm), washed twice with ice-cold PBS, and lysed in RIPA buffer [50 mM HEPES pH 7.4, 150 mM NaCl, 1% sodium deoxycholate, 1% NP-40, 0.1% SDS, 10 mM sodium pyrophosphate, 10 mM β-glycerophosphate, 2.5 mM MgCl2, 200 µM TCEP, phosphatase and protease inhibitor cocktail (in-house)], to produce whole cell extracts. Whole-cell extracts were sonicated, and protein concentrations were determined using the Bradford assay. Protein extracts (100 µg) were subjected to disulfide bond reduction with 5 mM TCEP (10 min) and alkylation with 25 mM chloroacetamide (20 min). Methanol–chloroform precipitation was performed prior to protease digestion. […]
For data set [7], the system named is Jurkat cells (TRIM28-transduced and untransduced). In words: CellTiter-Glo cell viability assay. In kind it is cell-based, human. Particulars: 100 pM – 10 μM, 24 h. The protocol: Figure S22. CellTiter-Glo assay to assess cell viability of Jurkat cells lentivirally transduced with TRIM28 with either N-terminal or C-terminal WEIS degron tag (or untagged control) and HiBit peptide tag, then incubated (alongside untransduced Jurkat cells) with a concentration curve of […]
(1 picture or pasted object on this page, not shown here) […]
mixed with the Cas9 RNPs and then electroporated using a 4D-Nucleofector (Lonza) on pulse code CL-120. Estimation of knockout efficiency was performed by PCR amplification of the sgRNA target site using primers described in ‘PCR primers for amplifying sgRNA target site’ below. PCR products were Sanger sequenced and editing efficiency was assessed using the online […]
HiBit and CellTiter-Glo® (CTG) Assays […]
spanning 169 pM–10 μM (final assay concentration). […]
HiBit signal was measured by adding 25 µL of the lytic detection reagent from the Nano-Glo® HiBiT Extracellular Detection System (Promega), prepared as per manufacturer protocol. […] Both assays were read using PHERAstar microplate luminescence reader (BMG Labtech). The data have been expressed as % of DMSO control and represent three independent biological replicates. […]
signal was measured by adding 40 µL of the Nano-Glo lytic detection reagent (Promega),
Background: ATP-based viability assays read luminescence as a measure of living cells.

Another data set deals with T3, HA-NanoLuc-WEIS (Homo sapiens, UniProt Q96SW2+Q9UKT9, N149E/Q147W/Q150I).
T3 construct: pLVX-Sprout-IKZF3 130-189aa Q147W N149E Q150I (WEIS); expressed in transfected cells; host or cells: HEK293T, lentiviral transduction, puromycin-selected
T3 sequence (Q9UKT9 130-189 Q147W/N149E/Q150I): as the sequence (Q9UKT9 130-189 Q147W/N149E/Q150I) above
T3 sequence (Q96SW2 whole entry): as the sequence (Q96SW2 whole entry, the tested form may be a part) above
T3 sequence (Q16531 whole entry partner): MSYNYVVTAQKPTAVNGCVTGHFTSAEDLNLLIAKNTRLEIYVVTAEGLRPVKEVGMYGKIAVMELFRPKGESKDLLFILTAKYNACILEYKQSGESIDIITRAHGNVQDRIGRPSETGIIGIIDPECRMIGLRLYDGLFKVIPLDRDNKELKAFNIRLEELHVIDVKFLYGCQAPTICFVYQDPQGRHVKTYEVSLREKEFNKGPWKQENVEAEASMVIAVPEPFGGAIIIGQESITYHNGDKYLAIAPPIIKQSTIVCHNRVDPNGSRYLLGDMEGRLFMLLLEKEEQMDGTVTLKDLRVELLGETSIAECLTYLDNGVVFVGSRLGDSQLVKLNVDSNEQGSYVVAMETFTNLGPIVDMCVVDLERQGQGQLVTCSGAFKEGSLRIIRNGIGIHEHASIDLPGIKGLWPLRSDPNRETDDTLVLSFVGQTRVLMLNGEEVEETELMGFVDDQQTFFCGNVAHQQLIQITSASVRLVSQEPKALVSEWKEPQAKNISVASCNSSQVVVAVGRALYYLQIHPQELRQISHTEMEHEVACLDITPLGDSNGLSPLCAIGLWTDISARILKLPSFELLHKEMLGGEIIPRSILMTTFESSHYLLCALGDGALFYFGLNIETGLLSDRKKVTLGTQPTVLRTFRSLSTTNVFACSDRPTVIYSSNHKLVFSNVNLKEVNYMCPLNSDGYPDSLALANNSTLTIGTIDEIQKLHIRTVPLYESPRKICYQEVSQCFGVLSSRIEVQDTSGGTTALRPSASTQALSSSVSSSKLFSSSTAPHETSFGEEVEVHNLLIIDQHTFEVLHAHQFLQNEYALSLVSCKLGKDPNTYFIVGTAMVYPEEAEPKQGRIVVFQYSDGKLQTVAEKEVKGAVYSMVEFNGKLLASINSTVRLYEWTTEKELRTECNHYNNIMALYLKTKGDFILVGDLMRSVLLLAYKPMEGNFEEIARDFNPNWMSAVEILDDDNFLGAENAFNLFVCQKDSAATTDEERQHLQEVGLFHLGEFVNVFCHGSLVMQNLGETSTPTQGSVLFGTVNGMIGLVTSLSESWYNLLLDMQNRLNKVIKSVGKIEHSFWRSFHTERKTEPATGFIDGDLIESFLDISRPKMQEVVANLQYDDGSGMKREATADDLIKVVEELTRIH
Kind of data set: HA antibody immunoblotting in HEK293T cells. The format is cell-based. The settings on record: 18 h, Western blot.

The target of data set [8] is WNIQ mutant ZF degron fused to EGFP (Homo sapiens, UniProt Q96SW2+Q9UKT9, Q147W/Q150I/S154Q). In words: Ratiometric EGFP:mCherry flow cytometry degradation assay, 18 h.
Chain of WNIQ mutant ZF degron fused to EGFP (Q9UKT9 130-189 Q147W/Q150I/S154Q): as the sequence (Q9UKT9 130-189 Q147W/N149E/Q150I) above, with E20N, S25Q counted along it
Chain of WNIQ mutant ZF degron fused to EGFP (Q96SW2 whole entry, the tested form may be a part): as the sequence (Q96SW2 whole entry, the tested form may be a part) above
Chain of WNIQ mutant ZF degron fused to EGFP (Q16531 whole entry partner, the tested form may be a part): as the sequence (Q16531 whole entry partner) above
For the next data set, the target named is T4, endogenous GSPT1 (Homo sapiens, UniProt P15170).
T4 construct: endogenous in cells; host or cells: Jurkat transduced with WEIS-EGFP
T4 sequence (P15170 whole entry): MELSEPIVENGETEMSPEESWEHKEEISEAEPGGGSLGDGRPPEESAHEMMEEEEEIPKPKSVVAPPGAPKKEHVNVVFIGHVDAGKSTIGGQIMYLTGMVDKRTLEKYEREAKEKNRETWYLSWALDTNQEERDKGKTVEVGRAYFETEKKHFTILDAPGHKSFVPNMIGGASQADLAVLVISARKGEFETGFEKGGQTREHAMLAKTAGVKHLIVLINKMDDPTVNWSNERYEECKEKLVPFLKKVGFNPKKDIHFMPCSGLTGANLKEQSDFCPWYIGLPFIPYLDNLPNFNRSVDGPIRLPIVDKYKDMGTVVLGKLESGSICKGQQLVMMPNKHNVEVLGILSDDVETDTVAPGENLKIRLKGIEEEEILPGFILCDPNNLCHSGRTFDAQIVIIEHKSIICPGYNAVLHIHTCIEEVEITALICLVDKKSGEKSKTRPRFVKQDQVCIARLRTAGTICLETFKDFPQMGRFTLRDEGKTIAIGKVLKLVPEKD
Kind of data set: Western blot for GSPT1 in WEIS-EGFP Jurkat cells. In kind it is cell-based. The settings on record: Jurkat transduced with EGFP-WEIS, 18 h.

The target of the next data set is T5, HA-CDK9-WEIS (Homo sapiens, UniProt Q96SW2+Q9UKT9, N149E/Q147W/Q150I).
T5 construct: IKZF3 130aa-142aa 170-189aa fused to EGFP; CDK9 (protein of interest, fusion partner N-terminal of the degron); expressed in transfected cells; host or cells: HEK293T, lentivirally transduced (Cilantro2-derived plasmid, Addgene #74450, EGFP replaced by HA-POI-WEIS)
T5 sequence (Q9UKT9 130-189 Q147W/N149E/Q150I): as the sequence (Q9UKT9 130-189 Q147W/N149E/Q150I) above
T5 sequence (Q96SW2 whole entry, the tested form may be a part): as the sequence (Q96SW2 whole entry, the tested form may be a part) above
In words: HA antibody immunoblotting in HEK293T cells. In kind it is cell-based. Particulars: 18 h, Western blot.

For the next data set, the target named is T6, HA-HPRT1-WEIS (Homo sapiens, UniProt Q96SW2+Q9UKT9, N149E/Q147W/Q150I).
T6 construct: IKZF3 130aa-142aa 170-189aa fused to EGFP; HPRT1 (protein of interest, fusion partner N-terminal of the degron); expressed in transfected cells; host or cells: HEK293T, lentivirally transduced (Cilantro2-derived plasmid, Addgene #74450, EGFP replaced by HA-POI-WEIS)
T6 sequence (Q9UKT9 130-189 Q147W/N149E/Q150I): as the sequence (Q9UKT9 130-189 Q147W/N149E/Q150I) above
T6 sequence (Q96SW2 whole entry, the tested form may be a part): as the sequence (Q96SW2 whole entry, the tested form may be a part) above
In words: HA antibody immunoblotting in HEK293T cells. In kind it is cell-based. The settings on record: 18 h, Western blot.

Chain of FDIP mutant ZF degron fused to EGFP (Q9UKT9 130-189 Q147F/N149D/Q150I/S154P): as the sequence (Q9UKT9 130-189 Q147W/N149E/Q150I) above, with W18F, E20D, S25P counted along it
Chain of FDIP mutant ZF degron fused to EGFP (Q96SW2 whole entry, the tested form may be a part): as the sequence (Q96SW2 whole entry, the tested form may be a part) above
Chain of FDIP mutant ZF degron fused to EGFP (Q16531 whole entry partner, the tested form may be a part): as the sequence (Q16531 whole entry partner) above
Chain of WEIK mutant ZF degron fused to EGFP (Q9UKT9 130-189 Q147W/N149E/Q150I/S154K): as the sequence (Q9UKT9 130-189 Q147W/N149E/Q150I) above, with S25K counted along it
Chain of WEIK mutant ZF degron fused to EGFP (Q96SW2 whole entry, the tested form may be a part): as the sequence (Q96SW2 whole entry, the tested form may be a part) above
Chain of WEIK mutant ZF degron fused to EGFP (Q16531 whole entry partner, the tested form may be a part): as the sequence (Q16531 whole entry partner) above
Chain of AEVK mutant ZF degron fused to EGFP (Q9UKT9 130-189 Q147A/N149E/Q150V/S154K): as the sequence (Q9UKT9 130-189 Q147W/N149E/Q150I) above, with W18A, I21V, S25K counted along it
Chain of AEVK mutant ZF degron fused to EGFP (Q96SW2 whole entry, the tested form may be a part): as the sequence (Q96SW2 whole entry, the tested form may be a part) above
Chain of AEVK mutant ZF degron fused to EGFP (Q16531 whole entry partner, the tested form may be a part): as the sequence (Q16531 whole entry partner) above

With `CC(C)(C)c1ccc2c(c1)C(=O)N(C1CCC(=O)NC1=O)C2=O` (stereo not shown) [Compound 19], the results for the “Selectivity (WT/mutant)” value in data set [1] (DC50(WT)/DC50(FDIP)), in [2] (DC50(WT)/DC50(AEVK)) and in data set [3] (DC50(WT)/DC50(WEIK)) were 12.0, 28 and 18.1, respectively. The DC50 in data set [1] (FDIP, Jurkat, 18 h) amounted to 63.1 nM; in data set [2] (AEVK, Jurkat, 18 h) it was 27.5 nM; in data set [3] (WEIK, Jurkat, 18 h), 42 nM. The pDC50 in [1] (FDIP, Jurkat, 18 h) is 7.20; in data set [2] (AEVK, Jurkat, 18 h), 7.56; in data set [3] (WEIK, Jurkat, 18 h), 7.38.
Regarding `CN1CCN(c2ccc3c(c2)C(=O)N(C2CCC(=O)NC2=O)C3=O)CC1` (stereo not shown) [Compound 23], the D max in data set [4] was 66%; in data set [5] (with 10 μM), 83%; at HA-NanoLuc-WEIS, 89%; on HA-CDK9-WEIS it was 70%; at HA-HPRT1-WEIS, 49%. Moreover, the DC50 in data set [4] amounted to 1270 nM; in data set [5] it was 125 nM; at HA-NanoLuc-WEIS, 47.8 nM; in data set [8] (WNIQ, Jurkat, 18 h) it was 53.7 nM; at HA-CDK9-WEIS, 299 nM; on HA-HPRT1-WEIS, 67.1 nM. Further, in data set [6], the “proteins degraded (quantitative proteomics)” value is recorded as “did not induce any protein degradation”. Further, the cell viability result in [7] is reported as “did not affect the cell viability”. For the same compound, the “Selectivity (WT/mutant)” value in data set [8] (DC50(WT)/DC50(WNIQ)) turned out to be 11.8. In addition, the pDC50 in [8] (WNIQ, Jurkat, 18 h) came out at 7.27. Moreover, the “degradation of endogenous GSPT1 (Western blot)” value on endogenous GSPT1 was “showed no degradation”.
